Assay: Retrospective analysis of tacrolimus trough levels (TTL) under SOC dosing, 30 days after pediatric liver transplantation
Type: in vivo, pediatric liver transplant patients
Experimental: CURATE.AI requires two components to be supplied into the platform as inputs: the administered tacrolimus dose in mg (dose) and the corresponding TTL in ng/ml (response) to generate a personalized profile for each patient. […] The response input was the corresponding TTL response measured the next day, right before the morning dose. Days with two measurements of TTL (taken in the morning and evening) instead of one, which is the standard frequency, were excluded. TTL measurements <2 ng/ml were assessed to be inaccurate as the measurement equipment was unable to provide resolution for TTL<2 ng/ml, and were thus excluded. All measurements in the records were only taken once each. Doses recorded from day 30 post-transplant onwards were not included as part of this study since it is during the initial post-transplant period that fluctuations in TTL are common; thereby requiring frequent adjustments in drug dosing. […] Doses recorded from the day of discharge onwards were assessed to be unreliable, as confirmation of the doses administered was not possible, and thus excluded. This study used dose-response pairs over a set of consecutive days for each patient for the analysis by CURATE.AI. Dose ranges were categorized as low (<2 mg), medium (2 mg to <4 mg), and high (≥4 mg).
The normality of the data distribution was tested with the Shapiro-Wilk test. Continuous variables were represented as mean (standard deviation (SD)) or median (interquartile range (IQR)), depending on the normality of the data type. Two-sided Wilcoxon signed-rank test was used to compare the medians of two non-parametric groups. Two-sided paired t-test was used to compare the means of two related parametric groups. The statistical significance was defined as p<0.05. All analyses were performed in Python (version 3.9.13).
The grey region represents the therapeutic range of between and inclusive of 7 and 10 ng/ml. Blue and orange markers represent TTL outside and within the therapeutic range, respectively. […]

## C=CC[C@@H]1/C=C(\C)C[C@H](C)C[C@H](OC)[C@H]2O[C@@](O)(C(=O)C(=O)N3CCCC[C@H]3C(=O)O[C@H](/C(C)=C/[C@@H]3CC[C@@H](O)[C@H](OC)C3)[C@H](C)[C@@H](O)CC1=O)[C@H](C)C[C@@H]2OC [tacrolimus]
16 patients, mean (SD)
  days within the therapeutic range (TTL 7 to 10 ng/ml), mean: 42.18 % of days
All 16 patients, first 30 days post-transplant, mean (SD)
  mean TTL (tacrolimus trough level): 8.79 ng/mL
Median (IQR)
  time to first achieve the therapeutic range (TTL 7 to 10 ng/ml), median: 5.00 days
